Assays:
PTHrP receptor = molecular target: T1, PTHrP receptor (Homo sapiens, UniProt Q03431); test: PTHrP receptor binding assay; conditions: nicotine 1×10^−6 M
T1 construct: 10-12 μg membrane protein; endogenous in cells; host or cells: WI38 human embryonic lung fibroblasts (inferred; the assay text only says membrane protein)
T1 sequence (Q03431 27-593): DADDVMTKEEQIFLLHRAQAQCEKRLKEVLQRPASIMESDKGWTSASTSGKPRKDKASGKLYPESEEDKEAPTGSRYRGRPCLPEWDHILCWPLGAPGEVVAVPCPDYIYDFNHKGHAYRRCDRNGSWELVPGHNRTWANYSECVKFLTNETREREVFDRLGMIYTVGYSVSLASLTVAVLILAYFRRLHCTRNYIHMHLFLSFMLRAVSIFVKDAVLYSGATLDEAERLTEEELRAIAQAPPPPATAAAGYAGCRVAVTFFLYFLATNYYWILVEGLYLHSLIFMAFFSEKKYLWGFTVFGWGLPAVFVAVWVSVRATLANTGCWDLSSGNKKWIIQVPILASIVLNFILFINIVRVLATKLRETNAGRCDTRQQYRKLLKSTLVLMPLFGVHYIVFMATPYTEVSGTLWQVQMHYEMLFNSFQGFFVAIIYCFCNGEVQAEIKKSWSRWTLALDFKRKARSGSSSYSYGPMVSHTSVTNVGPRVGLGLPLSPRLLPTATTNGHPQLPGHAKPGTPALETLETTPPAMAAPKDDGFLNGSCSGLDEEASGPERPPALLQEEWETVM
Description: The receptor binding assay was carried out as previously described (Torday and Rehan (2002) Am. J. Physiol. Lung Cell Mol. Physiol. 283: L130-L135; Torday and Rehan (2003) Cell Biochem Biophys 37: 235-246). The assay mixture, in a total volume of 0.1 ml, contained 50 mM Tris.HCl (pH 7.4), 2 mM dithiothreitol, 10 mM EDTA, 10 μg/ml each of protease inhibitors (leupeptin, pepstatin, antipain, and aprotinin), 0.5 mM phenylmethylsulfonyl fluoride, 10 mg/ml BSA, 5 mM MgCl2, […] [1251]-Tyr34-PTHrP-(1-34) (specific activity 1,064 Ci/mmol), 10-12 μg membrane protein, and 1×10-10 to 1×10^−6 M PTHrP-(1-34). Triplicate samples were incubated for 30 min at 30° C. Reactions were stopped by the addition of 0.1 ml of homogenization buffer containing 20 mg/ml of BSA and placed in ice-cold water for 30 min, followed by centrifugation at 15,000 g for 1 min. The supernatant was aspirated, and the pellet was counted for radioactive content with a gamma counter (model 1470; Wallace, Gaithersburg, Md.). Nonspecific binding was determined in the presence of 1 μM nonradioactive PTHrP-(1-34). Specific binding of [^125I]-Tyr34-PTHrP-(1-34) was calculated as total binding minus nonspecific binding and expressed as femtomoles per milligrams of protein. […] The effect of nicotine (1×10^−6 M) on PTHrP receptor binding was examined without and with the nACh receptor antagonists D-tubocurarine, α-bungarotoxin, or mecamylamine (1×10^−9 to 1×10^−6 M).

fetal rat lung explants = test: In vitro ATII cell proliferation in lung explants (PCNA and SP-C labeling); type: cell-based; conditions: nicotine 24 h; P<0.05, n=4
Description: Explants derived from three to five litters of rats were used for each experiment during the course of the studies. Lungs were harvested from fetal rats under sterile conditions. The lung tissue was chopped into −1-mm cubes and incubated in 0.5 ml of Waymouth's MB-252/1 medium containing penicillin (100 U/ml)-streptomycin (100 U/ml) and Fungizone (2.5 μg/ml) in six-well plates while rocking on an oscillating platform (3 cycles/min) in 5% CO2-95% air at 37° C. The explants were allowed to attach for 1-2 h.
Cultured ATII cells or explants were treated with nicotine under various experimental conditions (see below), and cell proliferation was determined by Cell Proliferation Assay (Promega) or dual PCNA and SP-C labeling, respectively (see above).

ATII cells [1] = test: Phospholipid synthesis ([3H]choline incorporation into saturated phosphatidylcholine) by ATII cells after in utero nicotine; type: in vivo, Sprague-Dawley rat; conditions: nicotine 1 mg/kg in utero; vs control, P<0.05, n=6
Description: (§1) Incorporation of [methyl-3H]choline chloride (NEN Dupont) into saturated phosphatidylcholine was determined in monolayers of cultured explants and ATII cells. […] After incubation, explants and cells were washed three times with ice-cold PBS. The explants and the scraped cells were thoroughly homogenized, and the cellular lipids were extracted with chloroform-methanol (2:1) (Bligh and Dyer (1959) Can. J. Biochem. Physiol., 37: 911-917). The organic phase was dried under a stream of nitrogen at 60° C., resuspended in 0.5 ml of carbon tetrachloride containing 3.5 mg of osmium tetroxide, and left at room temperature for 15 min. The reaction mixture was redried under nitrogen and resuspended in 70 μl of chloroform-methanol (9:1, vol/vol). The lipid extracts were transferred to silica gel plates (Kodak, Rochester, N.Y.) and developed in a chloroform-methanolwater (65:25:4) solvent system. Pure dipalmitoyl phosphatidylcholine was used as the chromatographic standard. The developed plates were stained with bromothymol blue, blotted, and vacuum dried for 5 min at 90° C. Chromatogram spots corresponding to the migration of saturated phosphatidylcholine were scraped from the plates and counted by liquid scintillation spectrometry. The amounts of [methyl^3H]choline chloride incorporated into saturated phosphatidylcholine were expressed as disintegrations per minute per milligram of protein.

ATII cells [2] = test: Phospholipid synthesis ([3H]choline incorporation) by ATII cells treated in vitro; type: cell-based, rat; conditions: nicotine 1×10^−9 M, 24 h, in vitro
Description: (§2) Isolated ATII cells were cultured in DMEM+10% FBS in 6- and 96-well plates, 100-mm dishes, and T-75 flasks, as needed, and maintained at 37° C. in a humidified incubator containing 5% CO2-95% air. At 80-90% confluence, cells were processed for cell proliferation, differentiation, and metabolic studies (see below).
as §1

ATII cells [3] = test: Western analysis of CCT-α and SP-B in ATII cells after in utero nicotine; type: in vivo, Sprague-Dawley rat
Description: Pathogen-free timed (embryonic day 0=day of mating) pregnant Sprague-Dawley rats (200-250 g body wt) were obtained from Charles River (Hollister, Calif.) at embryonic day 3 and allowed to acclimatize until embryonic day 6. […] The fetuses were extracted by cesarean section, and the lungs were snap frozen for later analysis or processed for ATII cell or fibroblast culture. […] Louis, Mo.; 0.25 mg/kg). All studies were approved by the Los Angeles Biomedical Research Institute Institutional Review Board and were conducted in accordance with the National Institutes of Health Guide for the Care and Use of Laboratory Animals. Protein extraction and Western blot analysis for SP-B and choline phosphate cytidylyltransferase-α (CCT-α) were performed using standard methods. […] Chemicon) overnight at 4° C. The antibody for CCT-α (1:2,000 dilution) was a kind gift from Dr. […] (University of Iowa, Iowa City, Iowa). […] The density of the SP-B and CCT-α bands was quantified using a scanning densitometer (Eagle Eye, Stratagene).

ATII cells [4] = test: Western analysis of CCT-α and SP-B in ATII cells treated in vitro; type: cell-based, rat
Description: Protein extraction and Western blot analysis for SP-B and choline phosphate cytidylyltransferase-α (CCT-α) were performed using standard methods. […] Equal amounts of the protein from the supernatant were dissolved in electrophoresis sample buffer and subjected to SDS-polyacrylamide (4-12% gradient) gel electrophoresis followed by electrophoretic transfer to a nitrocellulose membrane. The membrane was blocked with 5% milk in 1× Tris-buffered saline containing 0.1% Tween 20 for 1 h and then incubated with rabbit anti-human SP-B polyclonal antibody (1:1,000 dilution; Chemicon) overnight at 4° C. The antibody for CCT-α (1:2,000 dilution) was a kind gift from Dr. Mallampalli (University of Iowa, Iowa City, Iowa). Subsequently, the membrane was washed with 1× Tris-buffered saline+0.1% Tween 20 and incubated with a 1:3,000 dilution of anti-rabbit horseradish peroxidase-linked whole antibody immunoglobulin G (Amersham, Arlington Heights, Ill.) for 1 h at room temperature, washed again, and developed with a chemiluminescent substrate (ECL, Amersham) following the manufacturer's protocol. The density of the SP-B and CCT-α bands was quantified using a scanning densitometer (Eagle Eye, Stratagene).

WI38 cells [5] = test: Reversal experiment, triglyceride (triolein) uptake by WI38 cells; type: cell-based, human; conditions: nicotine 7 days
ATII cells [6] = conditions: nicotine 24 h
ATII cells [7] = test system: ATII cells
ATII cells [8] = test system: ATII cells; remark: listed apart in the source
Description: as §2
Briefly, [1,2-^13C2]glucose was purchased with >99% enrichment for the specified carbon positions from Isotech (Miamisburg, Ohio). Lung ATII cells were isolated from embryonic day 20 pups from specified treatment groups and cultured in T-75 tissue culture flasks. […] The [^13C]glucose label is readily incorporated into various metabolites in mammalian cells, including ribonucleic acid (through ribose synthesis), lactate (through glycolysis), glutamate (through the tricarboxylic acid cycle), and palmitate (through the formation of acetyl-CoA). As the molecular weight (atomic mass unit) of these molecules increases on incorporation of the heavier ^13C atoms derived from [1,2,^13C2]glucose, they can be separated and quantitatively analyzed by gas chromatography-mass spectrometry (MS) on the basis of changes in their mass-to-charge ratios (m/z). […]
Fatty acids in the cell culture medium were extracted by saponification of the TRIzol cell extract after removal of the RNA-containing supernatant. […] Palmitate was monitored at ion cluster m/z 270. […]

WI38 cells [9] = test: Reversal of nicotine-induced LIF-to-MYF transdifferentiation in WI38 cells, Western analysis
Description: The human embryonic cell line WI38 was obtained from the American Type Culture Collection (Rockville, Md.). Cells were grown in minimum essential medium (MEM) +10% fetal bovine serum at 37° C. in six-well plates, two well slides, and 60-mm and 100-mm culture dishes, as needed. […] Subsequently, the cells were treated with rosiglitazone (RGZ) (1×10^−5 M) (a PPARγ agonist), PTHrP (5×10^−7 M), or DBcAMP (1×10^−5 M) for 7 days, and the expression of PTHrP receptor, PPARγ, ADRP, calponin, and cSMA was determined by Western analysis and immunohistochemistry. Simultaneously, fibroblast function was characterized by measuring their capacity to take up triglycerides. Some experiments were performed in the presence of a specific PPARγ antagonist, GW9662. Medium containing fresh chemicals was added daily, and at the end of the experimental period the cells were processed as needed.
For Western blotting, cells were lysed using an extraction buffer [10 mM tris (hydroxymethyl) aminomethane (Tris, pH 7.5), 0.25 M sucrose, 1 mM EDTA, 5 mM benzamidine, 2 mM phenylmethylsulfonyl fluoride, and 10 (j.tg/ml each of pepstatin A, aprotinin, and leupeptin], and centrifuged at 140 g for 10 min (4° C.). Equal amounts of the protein (25 μg) from the supernatant were dissolved in electrophoresis sample buffer and were subjected to sodium dodecyl sulfate-polyacrylamide (4%-12% gradient) gel electrophoresis (SDS-PAGE) followed by electrophoretic transfer to a nitrocellulose memane. The nonspecific binding of antibody was blocked by washing with Tris-buffered saline (TBS) containing 0.1% Tween 20 (TBST) and 5% milk for 1 h. The blot was then subjected to two brief washes with TBST plus 0.5% Tween 20, incubated in TBST plus 0.1% Tween 20 and the specific primary antibodies (PPARγ 1:2000, Alexis Biochemicals, San Diego, Calif.; cSMA 1:50,000, Sigma, St. Louis, Mo.: ADRP 1:3000) overnight at 4° C. Blots were then washed in TBST plus 0.1% Tween 20 and then incubated for 1 h in secondary antibody, washed, and developed with a chemiluminescent substrate [enhanced chemiluminescence (ECL); Amersham, Arlington Heights, Ill.] following the manufacturer's protocol. The densities of the specific protein bands were quantified using a scanning densitometer (Eagle Eye II still video system, Stratagene, La Jolla, Calif.).

[10] = 7d nicotine-only group, 7 days after nicotine 10^−9 M

## CN1CCCC1c1cccnc1 (stereo not shown) [nicotine]
PTHrP receptor
  decrease in PTHrP binding to its receptor: 30%
Fetal rat lung explants
  ATII cell proliferation in lung explants: significantly increased
ATII cells [1]
  [3H]choline incorporation into saturated phosphatidylcholine: significantly increased
ATII cells [2]
  choline incorporation: significantly increased
ATII cells [3]; in utero nicotine, P<0.05, n=3
  steady-state SP-B protein level: significantly increased
ATII cells [3]; in vivo nicotine exposure
  CCT-α protein expression: significant increase
ATII cells [4]; direct nicotine treatment of cultured ATII cells
  SP-B expression: significant increase
ATII cells [4]; in vitro nicotine exposure
  CCT-α protein expression: significant increase
WI38 cells [5]
  triolein uptake: significant decrease
ATII cells [6]
  ATII cell proliferation, direct stimulation in vitro: no effect
ATII cells [7]; in utero nicotine
  [13C]glucose labeling of the acetyl-CoA pool: modest increase
ATII cells [7]; rat, in vivo
  de novo palmitate synthesis as a function of total palmitate: almost doubled
  ribose synthesis via the nonoxidative transketolase pathway: significant decrease
  ribose synthesis via the oxidative glucose-6-phosphate dehydrogenase pathway: significant increase
ATII cells [8]
  de novo palmitate synthesis or [13C]glucose labeling of acetyl-CoA: did not result in a significant change
  ribose synthesis via the oxidative or the nonoxidative pathway: did not alter
WI38 cells [9]; 7 days after stopping nicotine (Example 3)
  αSMA expression vs untreated controls: significantly higher
WI38 cells [9]; [10]
  expression of PTHrP receptor, PPARγ and ADRP vs untreated controls: significantly lower
  expression of αSMA and calponin vs untreated controls: significantly higher
WI38 cells [9]; nicotine 10^−9 M 7 days, then 7 days without nicotine (Example 3)
  PTHrP receptor expression vs untreated controls: significantly lower
WI38 cells [9]; nicotine 7 days, p<0.001 vs control, n=3
  expression of αSMA and calponin: significant increases
WI38 cells [9]; nicotine 7 days, vs control, n=3
  expression of PTHrP receptor, PPARγ and ADRP: significant decreases

From patent publication US9173875B2, “Treatment for nicotine-induced lung disease using peroxisome proliferator-activated receptor gamma agonists” (Los Angeles Biomedical Research Institute at Harbor-UCLA …, priority 2006, dated 2015)
